The values that follow come from paper PMC9515629, “Cystargolide-based amide and ester Pz analogues as proteasome inhibitors and anti-cancer agents” (Royal Society Open Science, 2022).

In the first experiment the test system is MDA-MB-231 cells. As to the kind of experiment: Cytotoxicity toward MDA-MB-231 cells. Type of experiment: cell-based. The following applies: Homo sapiens, read-out: cytotoxicity IC50 ± s.d., MDA-MB-231. The method, then: (§1) Next, analogues 8a–l were evaluated for their cytotoxicities toward Jurkat cells, a human T-cell leukemia model, as well as the breast cancer cell lines MCF-7 and MDA-MB-231, and the multiple myeloma cell line RPMI 8226.
For orientation: IC50 means the concentration that gives 50% inhibition. For `CC[C@H](C)[C@@H]1C(=O)O[C@H]1C(=O)N[C@H](C(=O)N[C@@H](COCc1ccccc1)C(=O)NCc1cnccn1)C(C)C` [8e], the IC50 is 255 ± 6 nM.

On to `CC[C@H](C)[C@@H]1C(=O)O[C@H]1C(=O)N[C@H](C(=O)N[C@@H](COCc1ccccc1)C(=O)OCc1ccc(Cl)cc1)C(C)C` [8k], for which the IC50 is 222 ± 15 nM.

Turning to `CC[C@H](C)[C@@H]1C(=O)O[C@H]1C(=O)N[C@H](C(=O)N[C@@H](COCc1ccccc1)C(=O)OCc1cccnc1)C(C)C` [8h], the half-maximal inhibitory concentration (IC50) amounted to 132 ± 3 nM.

Take `CC[C@H](C)[C@@H]1C(=O)O[C@H]1C(=O)N[C@H](C(=O)N[C@@H](COCc1ccccc1)C(=O)NCc1cc(OC)cc(OC)c1)C(C)C` [8f]: the IC50 was found to be 53 ± 2 nM.

In the case of `CC[C@H](C)[C@@H]1C(=O)O[C@H]1C(=O)N[C@H](C(=O)N[C@@H](COCc1ccccc1)C(=O)OCc1ccncc1)C(C)C` [8i], the IC50 is 108 ± 7 nM.

Consider `CC[C@H](C)[C@@H]1C(=O)O[C@H]1C(=O)N[C@H](C(=O)N[C@@H](COCc1ccccc1)C(=O)NCc1ccncc1)C(C)C` [8d], for which the IC50 amounted to 328 ± 12 nM.

In the case of `CC[C@H](C)[C@@H]1C(=O)O[C@H]1C(=O)N[C@H](C(=O)N[C@@H](COCc1ccccc1)C(=O)NCc1cccnc1)C(C)C` [8c], the IC50 stood at 242 ± 6 nM.

On to `CC[C@H](C)[C@@H]1C(=O)O[C@H]1C(=O)N[C@H](C(=O)N[C@@H](COCc1ccccc1)C(=O)NCc1ccccc1)C(C)C` [8a], for which the IC50 stood at 1940 ± 166 nM.

In another experiment the target is T1, β5 subunit of human proteasomes (hβ5) (Homo sapiens, UniProt P28074).
T1 construct: endogenous in cells; host or cells: Jurkat cell lysate (crude)
T1 sequence (P28074 60-263): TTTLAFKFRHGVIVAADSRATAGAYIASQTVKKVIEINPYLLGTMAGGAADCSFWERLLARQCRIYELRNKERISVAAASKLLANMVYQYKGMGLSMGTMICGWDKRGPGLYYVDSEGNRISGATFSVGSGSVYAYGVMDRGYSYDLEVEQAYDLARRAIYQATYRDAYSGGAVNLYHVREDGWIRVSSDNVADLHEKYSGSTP
As to the kind of experiment: Proteasome chymotrypsin-like (β5) activity in crude Jurkat cell lysate, Suc-LLVY-AMC substrate. Type of experiment: biochemical. The following applies: read-out: proteasome inhibition IC50 ± s.d., hβ5. As for the experimental part: Based on our previously reported procedure, the degree of peptide cleavage in a crude Jurkat cell lysate was measured to determine proteasome activity. The fluorescent substrate Suc-LLVY-AMC (Enzo Life Sciences) was used to determine chymotrypsin-like (β5) activity of the proteasomes.
Take `CC[C@H](C)[C@@H]1C(=O)O[C@H]1C(=O)N[C@H](C(=O)N[C@@H](COCc1ccccc1)C(=O)NCc1cnccn1)C(C)C` [8e]: the IC50 is 8.4 ± 3.4 nM.

With `CC[C@H](C)[C@@H]1C(=O)O[C@H]1C(=O)N[C@H](C(=O)N[C@@H](COCc1ccccc1)C(=O)OCc1ccc(Cl)cc1)C(C)C` [8k], the IC50 was found to be 18.2 ± 54 nM.

For `CC[C@H](C)[C@@H]1C(=O)O[C@H]1C(=O)N[C@H](C(=O)N[C@@H](COCc1ccccc1)C(=O)OCc1cccnc1)C(C)C` [8h], the IC50 turned out to be 3.3 ± 1.8 nM.

With `CC[C@H](C)[C@@H]1C(=O)O[C@H]1C(=O)N[C@H](C(=O)N[C@@H](COCc1ccccc1)C(=O)NCc1cc(OC)cc(OC)c1)C(C)C` [8f], the IC50 came out at 4.5 ± 1.5 nM.

For `CC[C@H](C)[C@@H]1C(=O)O[C@H]1C(=O)N[C@H](C(=O)N[C@@H](COCc1ccccc1)C(=O)OCc1ccncc1)C(C)C` [8i], the concentration for half-maximal inhibition (IC50) turned out to be 4 ± 1.1 nM.

For `CC[C@H](C)[C@@H]1C(=O)O[C@H]1C(=O)N[C@H](C(=O)N[C@@H](COCc1ccccc1)C(=O)NCc1ccncc1)C(C)C` [8d], the IC50 amounted to 3 ± 1.2 nM.

As to `CC[C@H](C)[C@@H]1C(=O)O[C@H]1C(=O)N[C@H](C(=O)N[C@@H](COCc1ccccc1)C(=O)NCc1cccnc1)C(C)C` [8c], the IC50 came to 3.9 ± 1.8 nM.

Take `CC[C@H](C)[C@@H]1C(=O)O[C@H]1C(=O)N[C@H](C(=O)N[C@@H](COCc1ccccc1)C(=O)NCc1ccccc1)C(C)C` [8a]: the IC50 came out at 2.3 ± 0.9 nM.

In a further experiment the test system is MCF-7 cells. As to the kind of experiment: Cytotoxicity toward MCF-7 cells. The following applies: Homo sapiens, MCF7; read-out: cytotoxicity IC50 ± s.d., MCF-7. In kind it is cell-based. As for the experimental part:
as §1
In the case of `CC[C@H](C)[C@@H]1C(=O)O[C@H]1C(=O)N[C@H](C(=O)N[C@@H](COCc1ccccc1)C(=O)NCc1cnccn1)C(C)C` [8e], the IC50 was found to be 5180 ± 602 nM.

Regarding `CC[C@H](C)[C@@H]1C(=O)O[C@H]1C(=O)N[C@H](C(=O)N[C@@H](COCc1ccccc1)C(=O)OCc1ccc(Cl)cc1)C(C)C` [8k], the IC50 came out at 3500 ± 279 nM.

Regarding `CC[C@H](C)[C@@H]1C(=O)O[C@H]1C(=O)N[C@H](C(=O)N[C@@H](COCc1ccccc1)C(=O)OCc1cccnc1)C(C)C` [8h], the IC50 turned out to be 3800 ± 293 nM.

Turning to `CC[C@H](C)[C@@H]1C(=O)O[C@H]1C(=O)N[C@H](C(=O)N[C@@H](COCc1ccccc1)C(=O)NCc1cc(OC)cc(OC)c1)C(C)C` [8f], the half-maximal inhibitory concentration (IC50) is 322 ± 39 nM.

Consider `CC[C@H](C)[C@@H]1C(=O)O[C@H]1C(=O)N[C@H](C(=O)N[C@@H](COCc1ccccc1)C(=O)OCc1ccncc1)C(C)C` [8i], for which the IC50 was found to be 4930 ± 403 nM.

Consider `CC[C@H](C)[C@@H]1C(=O)O[C@H]1C(=O)N[C@H](C(=O)N[C@@H](COCc1ccccc1)C(=O)NCc1ccncc1)C(C)C` [8d], for which the IC50 was 5300 ± 598 nM.

With `CC[C@H](C)[C@@H]1C(=O)O[C@H]1C(=O)N[C@H](C(=O)N[C@@H](COCc1ccccc1)C(=O)NCc1cccnc1)C(C)C` [8c], the IC50 is 5630 ± 550 nM.

As for `CC[C@H](C)[C@@H]1C(=O)O[C@H]1C(=O)N[C@H](C(=O)N[C@@H](COCc1ccccc1)C(=O)NCc1ccccc1)C(C)C` [8a], the IC50 was found to be 2290 ± 195 nM.

The test system of a further experiment is Jurkat cells. The experiment can be described thus: Cytotoxicity toward Jurkat cells. The following applies: Homo sapiens, read-out: cytotoxicity IC50 ± s.d., Jurkat. In kind it is cell-based. The method, then:
as §1
For `CC[C@H](C)[C@@H]1C(=O)O[C@H]1C(=O)N[C@H](C(=O)N[C@@H](COCc1ccccc1)C(=O)NCc1cnccn1)C(C)C` [8e], the IC50 turned out to be 132 ± 4 nM.

As for `CC[C@H](C)[C@@H]1C(=O)O[C@H]1C(=O)N[C@H](C(=O)N[C@@H](COCc1ccccc1)C(=O)OCc1ccc(Cl)cc1)C(C)C` [8k], the IC50 was found to be 182 ± 15 nM.

As to `CC[C@H](C)[C@@H]1C(=O)O[C@H]1C(=O)N[C@H](C(=O)N[C@@H](COCc1ccccc1)C(=O)OCc1cccnc1)C(C)C` [8h], the IC50 stood at 61 ± 16 nM.

As to `CC[C@H](C)[C@@H]1C(=O)O[C@H]1C(=O)N[C@H](C(=O)N[C@@H](COCc1ccccc1)C(=O)NCc1cc(OC)cc(OC)c1)C(C)C` [8f], the IC50 was 63 ± 2 nM.

For the molecule `CC[C@H](C)[C@@H]1C(=O)O[C@H]1C(=O)N[C@H](C(=O)N[C@@H](COCc1ccccc1)C(=O)OCc1ccncc1)C(C)C` [8i], the IC50 is 36 ± 10 nM.

Regarding `CC[C@H](C)[C@@H]1C(=O)O[C@H]1C(=O)N[C@H](C(=O)N[C@@H](COCc1ccccc1)C(=O)NCc1ccncc1)C(C)C` [8d], the IC50 amounted to 64 ± 10 nM.

Turning to `CC[C@H](C)[C@@H]1C(=O)O[C@H]1C(=O)N[C@H](C(=O)N[C@@H](COCc1ccccc1)C(=O)NCc1cccnc1)C(C)C` [8c], the IC50 turned out to be 71 ± 19 nM.

Take `CC[C@H](C)[C@@H]1C(=O)O[C@H]1C(=O)N[C@H](C(=O)N[C@@H](COCc1ccccc1)C(=O)NCc1ccccc1)C(C)C` [8a]: the IC50 was 12 ± 2 nM.

The next experiment deals with RPMI 8226 cells. The experiment can be described thus: Cytotoxicity toward RPMI 8226 cells. Type of experiment: cell-based. The following applies: Homo sapiens, read-out: cytotoxicity IC50 ± s.d., RPMI 8226. As for the experimental part: as §1
Regarding `CC[C@H](C)[C@@H]1C(=O)O[C@H]1C(=O)N[C@H](C(=O)N[C@@H](COCc1ccccc1)C(=O)NCc1cnccn1)C(C)C` [8e], the IC50 came to 31 ± 2 nM.

For `CC[C@H](C)[C@@H]1C(=O)O[C@H]1C(=O)N[C@H](C(=O)N[C@@H](COCc1ccccc1)C(=O)OCc1ccc(Cl)cc1)C(C)C` [8k], the IC50 turned out to be 182 ± 4 nM.

As to `CC[C@H](C)[C@@H]1C(=O)O[C@H]1C(=O)N[C@H](C(=O)N[C@@H](COCc1ccccc1)C(=O)OCc1cccnc1)C(C)C` [8h], the IC50 came to 43 ± 2 nM.

On to `CC[C@H](C)[C@@H]1C(=O)O[C@H]1C(=O)N[C@H](C(=O)N[C@@H](COCc1ccccc1)C(=O)NCc1cc(OC)cc(OC)c1)C(C)C` [8f], for which the IC50 came out at 26 ± 1 nM.

`CC[C@H](C)[C@@H]1C(=O)O[C@H]1C(=O)N[C@H](C(=O)N[C@@H](COCc1ccccc1)C(=O)OCc1ccncc1)C(C)C` [8i]: the IC50 turned out to be 35 ± 3 nM.

Turning to `CC[C@H](C)[C@@H]1C(=O)O[C@H]1C(=O)N[C@H](C(=O)N[C@@H](COCc1ccccc1)C(=O)NCc1ccncc1)C(C)C` [8d], the IC50 turned out to be 37 ± 1 nM.

As for `CC[C@H](C)[C@@H]1C(=O)O[C@H]1C(=O)N[C@H](C(=O)N[C@@H](COCc1ccccc1)C(=O)NCc1cccnc1)C(C)C` [8c], the IC50 is 85 ± 3 nM.

Consider `CC[C@H](C)[C@@H]1C(=O)O[C@H]1C(=O)N[C@H](C(=O)N[C@@H](COCc1ccccc1)C(=O)NCc1ccccc1)C(C)C` [8a], for which the IC50 is 64 ± 4 nM.
